Results: publication PMC12118597 (Science Advances, 2025)
Like-named read-outs stand apart in the source and are kept apart here.

Molecular target: SARS-CoV-2 NSP3 macrodomain (Mac1) (Severe acute respiratory syndrome coronavirus 2, UniProt P0DTD1)
Assay type: binding
Conditions: for 1-BDC: PanDDA background density correction factor; for Total number of conformations: ligand conformations modeled in the crystal structure; for 2*(1-BDC) (%): occupancy estimate from PanDDA; for Refined ligand occupancy (%): refined crystallographic occupancy
[1] = TRUE = crystal structure with ligand obtained
[2] = crystal soak 10 mM, P43 crystal form
[3] = site of ligand in X-ray crystal structure
[4] = ligand-bound crystal structure obtained (TRUE)
[5] = site occupied in X-ray crystal structure
[6] = event 1, soak concentration 10 mM
[7] = TRUE = ligand-bound crystal structure obtained (PDB code given)
[8] = crystal soak, P43 crystals, soak concentration 10 mM
[9] = crystal soak, P43 crystals, soak concentration 10 mM for the hits shown
[10] = site of Mac1 occupied in the X-ray crystal structure (Adenosine or Distal)
[11] = soak concentration 3 mM, P43 crystals
[12] = crystal soak 10 mM, TFA/DMSO background map

SMILES | Occupancy difference (refined_occupancy - 2*(1-BDC)) | 1-BDC | X-ray crystal structure [1] | PanDDA run, overall: Hit [2] | PanDDA run, overall: Modeled [2] | PanDDA run, DMSO background map: 1-BDC (crystal soak 10 mM) | PanDDA run, DMSO background map: Hit (crystal soak 10 mM) | Total number of conformations | 2*(1-BDC) (%) | Refined ligand occupancy (%) | Binding site [3] | further results
OCC(Nc1ncnc2[nH]ccc12)C1CCOC1 (centres unmarked) [AVI-3679] | 0 | 0.16 | TRUE | TRUE | TRUE | 0.16 | TRUE | 1 | 32% | 32% | Adenosine | 
OCC(CC1CC1)Nc1ncnc2[nH]ccc12 (centres unmarked) [AVI-3662] | 0 | 0.14 | TRUE | TRUE | TRUE | 0.14 | TRUE | 1 | 28% | 28% | Adenosine | PanDDA run, overall: Modeling comment [2]: Distal site, weak density, not modeled
CO[C@@H]1C[C@H](CO)N(c2ncnc3[nH]ccc23)C1 [AVI-3656] | 0 | 0.26 |  | TRUE | TRUE | 0.26 | TRUE | 1 | 52% | 52% |  | X-ray crystal structure [4]: TRUE; Binding site [5]: Adenosine
CC1CCN(c2ncnc3[nH]ccc23)C1CO (centres unmarked) [AVI-3655] | 0 | 0.21 |  | TRUE | TRUE | 0.21 | TRUE | 1 | 42% | 42% |  | X-ray crystal structure [4]: TRUE; Binding site [5]: Adenosine
Nc1nnc(SCCn2c(=O)oc3ccccc32)s1 [AVI-296] | 0 | 0.06 |  |  |  |  |  | 1 | 12% | 12% |  | PanDDA run, DMSO background map: 1-BDC [6]: 0.06; PanDDA run, DMSO background map: Hit (soak concentration 10 mM): TRUE; PanDDA run, DMSO background map: Modeled (soak concentration 10 mM): TRUE; X-ray crystal structure [7]: TRUE; PanDDA run, overall: Modeled [8]: TRUE; PanDDA run, overall: Hit [9]: TRUE; Binding site [10]: Distal
Cc1ccccc1CC(CO)Nc1ncnc2[nH]ccc12 (centres unmarked) [AVI-3674] | 0 | 0.19 | TRUE | TRUE | TRUE | 0.19 | TRUE | 1 | 38% | 38% | Adenosine | 
OCC(CC1CCOC1)Nc1ncnc2[nH]ccc12 (centres unmarked) [AVI-3665] | 0 | 0.17 | TRUE | TRUE | TRUE | 0.17 | TRUE | 1 | 34% | 34% | Adenosine | 
Cc1c(C)n(Cc2ccccc2)c2ncnc(N)c12 [AVI-321] | 0 | 0.08 |  |  |  |  |  | 1 | 16% | 16% |  | X-ray crystal structure [7]: TRUE; Binding site [10]: Adenosine; PanDDA run, DMSO background map: 1-BDC (soak concentration 3 mM): 0.08; PanDDA run, DMSO background map: Hit (soak concentration 3 mM): TRUE; PanDDA run, DMSO background map: Modeled (soak concentration 3 mM): TRUE; PanDDA run, overall: Hit [11]: TRUE; PanDDA run, overall: Modeled [11]: TRUE
O=C(O)C(F)(F)F.OCC12CC(CN1c1ncnc3[nH]ccc13)C2 [AVI-3681] | -14 | 0.22 |  | TRUE | TRUE | 0.22 | TRUE | 1 | 44% | 30% |  | PanDDA run, overall: Modeling comment [2]: Distal site, weak density, not modeled; X-ray crystal structure [4]: TRUE; Binding site [5]: Adenosine
O=C(O)C(F)(F)F.OC[C@H]1CC2(CN1c1ncnc3[nH]ccc13)OCCO2 [AVI-3702] | 0 | 0.21 |  | TRUE |  | 0.21 | TRUE | 1 | 42% | 42% |  | X-ray crystal structure [4]: TRUE; Binding site [5]: Adenosine
O=C(O)C(F)(F)F.OCC(Nc1ncnc2[nH]ccc12)C(O)C1CCCCC1 (centres unmarked) [AVI-3687] |  |  |  | TRUE |  | 0.15 | TRUE |  |  |  |  | PanDDA run, overall: Modeling comment [2]: Weak density, not modeled; PanDDA run, TFA/DMSO background map: 1-BDC [12]: 0.08; PanDDA run, TFA/DMSO background map: Hit [12]: TRUE
c1ccc(-n2nnnc2CSc2nnc(NC3CC3)s2)cc1 [AVI-286] | 0 | 0.11 |  |  |  |  |  | 1 | 22% | 22% |  | PanDDA run, DMSO background map: 1-BDC [6]: 0.11; PanDDA run, DMSO background map: Hit (soak concentration 10 mM): TRUE; PanDDA run, DMSO background map: Modeled (soak concentration 10 mM): TRUE; X-ray crystal structure [7]: TRUE; PanDDA run, overall: Modeled [8]: TRUE; PanDDA run, overall: Hit [9]: TRUE; Binding site [10]: Distal
OCC(CC1CCC1)Nc1ncnc2[nH]ccc12 (centres unmarked) [AVI-3641] | 0 | 0.18 | TRUE | TRUE | TRUE | 0.18 | TRUE | 1 | 36% | 36% | Adenosine | 
OCC(CC(O)c1ccccc1)Nc1ncnc2[nH]ccc12 (centres unmarked) [AVI-3642] | 0 | 0.17 | TRUE | TRUE | TRUE | 0.17 | TRUE | 1 | 34% | 34% | Adenosine | 
CC(C)(C)CC(CO)Nc1ncnc2[nH]ccc12 (centres unmarked) [AVI-3648] | 0 | 0.13 | TRUE | TRUE | TRUE | 0.13 | TRUE | 1 | 26% | 26% | Adenosine | 
